Source: article PMC6273963, “Design, Synthesis, and Biological Evaluation of Some Novel Pyrrolizine Derivatives as COX Inhibitors with Anti-Inflammatory/Analgesic Activities and Low Ulcerogenic Liability” (Molecules, 2016)

Assays:
rat paw edema = test system: rat paw edema; design: method as in PMID 19913956; settings: in comparison with ketorolac; cited from earlier work
mPGES-1 = test system: mPGES-1; design: method as in PMID 19719242; settings: cell free; cited from earlier work
5-LOX = test system: 5-LOX; design: method as in PMID 8021931, PMID 9396390, PMID 12660020, PMID 19719242; settings: literature values, Figures 1 and 2; cited from earlier work
[1] = test system: carrageenan-induced rat paw edema; test: Carrageenan-induced rat paw edema model (anti-inflammatory activity); format: in vivo; design: key to Potency (anti-inflammatory activity of tested compound/ibuprofen): ratio of % inhibition of edema (compound / ibuprofen); ibuprofen = 1.00; settings: for % Inhibition in Edema Thickness 1 h: 1 h after induction of inflammation; for % Inhibition in Edema Thickness 1 h / % Inhibition in Edema Thickness 2 h / % Inhibition in Edema Thickness 3 h: IP, dose molecularly equivalent to ibuprofen, n = 6; for % Inhibition in Edema Thickness 2 h: 2 h after induction of inflammation; for % Inhibition in Edema Thickness 3 h: 3 h after induction of inflammation; for Potency (anti-inflammatory activity of tested compound/ibuprofen): after 3 h of induction of inflammation, relative to ibuprofen; for anti-inflammatory activity (in words): compared with ibuprofen and parent compound 12
Excerpt: The carrageenan-induced rat paw edema model was utilized to investigate the anti-inflammatory activity of compounds 12–19 relative to ibuprofen as a reference drug.
(§1) Adult albino rats of both sex weighing 100–140 g were used in evaluation of the anti-inflammatory, analgesic, ulcerogenic activity in addition to the histopathological study of the new pyrrolizines 12–19. Animal ethical use clearance was obtained from the Ethical Committee at the College of Pharmacy, Umm Al-Qura University. Normalization of the animals with laboratory conditions were achieved by keeping them in laboratory one week before starting the experiments. Standard rat pellet diet was used for feeding animals and water ad libitum.
The anti-inflammatory activity of the novel compounds 12–19 was evaluated in comparison with ibuprofen as a standard, using a rat paw edema model as described by Winter et al.. Adult albino rats of both sexes (100–140 gm) were used. Rats were uniformly hydrated by giving 3 mL water for each rat through gastric inoculation to reduce variability to edema response. Animals were then divided into groups of six animal each. The control group was given saline solution containing few drops of sodium carboxymethyl cellulose (CMC) 1% and DMSO. Ibuprofen (50 and 100 mg/kg) was given as standard drug. The new compounds 12–19 in a dose molecularly equivalent to ibuprofen were dissolved in 0.5 mL DMSO and CMC 1% was added dropwise with continuous triturating to complete the specified volume. The tested compounds were administered intraperitoneally (IP). The induction of inflammation was achieved by subcutaneous (SC) injection of carrageenan-sodium gel, into the sub-plantar region of the right hind paw. The dorsoventral diameter (thickness) of the right and left hind paw of each rat was measured using digital calipers with accuracy of 0.01 mm (Cole-Parmer, Vernon Hills, IL, USA). The thickness of edema was measured 1, 2 and 3 h after induction of inflammation. The left hind paw diameter served as a control for the degree of inflammation in the right hind paw. The changes in the edema thickness were expressed as mean ± SEM, Figure 4. The anti-inflammatory activity was calculated as % inhibition of inflammation = (1 − Lt/Lc) × 100. Where Lt is the mean increase in paw thickness in rats treated with the tested compounds and Lc is the mean increase in paw thickness in control group. Data were collected, and statistically analyzed by One way ANOVA followed by student-Newman-Keuls multiple comparison test, Table 2.

[2] = biological target: T1, COX-2 (human recombinant) (Homo sapiens, UniProt P35354); test: COX colorimetric inhibitor screening assay, COX-2
T1 sequence (P35354 18-604): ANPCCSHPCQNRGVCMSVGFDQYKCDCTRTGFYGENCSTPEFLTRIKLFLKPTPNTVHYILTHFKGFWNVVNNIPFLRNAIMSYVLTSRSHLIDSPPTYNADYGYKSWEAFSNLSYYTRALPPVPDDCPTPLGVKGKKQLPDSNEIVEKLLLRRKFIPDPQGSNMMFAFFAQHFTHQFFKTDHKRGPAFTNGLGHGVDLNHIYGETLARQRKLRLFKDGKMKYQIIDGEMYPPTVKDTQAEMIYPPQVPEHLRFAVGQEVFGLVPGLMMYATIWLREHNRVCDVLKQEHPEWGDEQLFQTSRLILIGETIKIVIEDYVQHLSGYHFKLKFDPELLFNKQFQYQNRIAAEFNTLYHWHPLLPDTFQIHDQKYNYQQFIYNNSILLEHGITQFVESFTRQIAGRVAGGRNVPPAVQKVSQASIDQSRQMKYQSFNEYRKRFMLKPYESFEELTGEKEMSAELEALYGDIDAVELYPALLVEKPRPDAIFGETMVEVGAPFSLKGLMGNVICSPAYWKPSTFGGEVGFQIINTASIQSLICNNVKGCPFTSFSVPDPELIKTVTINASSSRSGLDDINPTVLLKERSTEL

rat stomach mucosa = test: Acute ulcerogenicity study; format: in vivo; settings: oral, 0.48 mmol/kg
Protocol: GIT toxicity is the main serious side effect of the NSAIDs. In this work, the ulcerogenicity of the novel compounds 12–19 was evaluated according to the previous reported methodology. The tested compounds 12–19 and ibuprofen were given orally in a dose of 0.48 mmol/kg.
as §1
GIT toxicity was evaluated according to the previous report. Adult albino rats of both sexes were divided into groups of six animals each. The test compounds were dissolved first in 0.5 mL DMSO, then CMC (1%) was added dropwise with trituration. Rats were fasted 20 h before drug administration. The eight tested compounds and ibuprofen were given orally in a dose of 0.24 and 0.48 mmol/kg/day suspended in 1% CMC, while the control group received vehicle (1% CMC containing few drops of DMSO). Rats were then fasted for 2 h, allowed to feed for 2 h then fasted again for another 20 h. Other doses were given in the second and third days. In the fourth day, Pentobarbital (60 mg/kg IP) was used to induce deep anesthesia then rats were sacrificed. The stomachs were removed, opened along with the greater curvature and rinsed with 0.9% saline. The number of mucosal damages (red spots) were counted using magnifying lens and their severity (ulcerogenic severity) was graded in a scale from 0 to 3 as follows: (0) normal (no injury), (0.5) red coloration, (1) spot ulcer, (1.5) hemorrhagic streaks, (2) ulcer > 3 mm, (3) ulcer > 5 mm. The ulcer index was calculated using the following equation ulcer index (UI) = UN + US + UP/10, where UN is the average number pf ulcers per animal, US is the average of severity score, UP is the percent of animal with ulcer.

thermal pain (hot plate) = test: Hot-plate test (analgesic activity); format: in vivo, rat; settings: IP, 0.24 and 0.48 mmol/kg, 2 h after injection, compared with ibuprofen
Protocol: A hot-plate was used to induce thermal pain and the cutoff time was fixed to 15 s [30]. […] The analgesic activity of the novel pyrrolizines were carried out using the thermal model (hot-plate test) according to a previous report [30]. An electronically controlled hot-plate (Harvard Apparatus Ltd., Kent, UK) was used and the cut-off time was 15 s and the temperature was adjusted to 52 ± 0.1 °C. Animals were then divided into groups of six animal each. Rats were assigned numbers of 1–6 in each group. The reference drug was given intraperitoneally at a dose of 50 mg/kg (0.24 mmol/kg) and 100 mg/kg (0.48 mmol/kg). […] The response latencies (time elapsed until licking paw or jumping) were measured and expressed as mean ± SEM. The percent changes (analgesic effects) of the tested compounds were calculated as percent change in latencies divided by baseline time (100 × (T1 − T0)/T0) and results were expressed as % change ± SEM, Figure 6.

[3] = test system: stomach mucosa, submucosa and mucosal glands; test: Histopathological study of rat stomach; format: in vivo; settings: rats of the ulcerogenicity test, haematoxylin and eosin stain
Excerpt: The stomachs of the rats used in ulcerogenicity test were subjected to a histopathological study to visualize the deep effects of ibuprofen and tested compounds on the stomach mucosa, submucosa and mucosal glands. The specimens were stained with haematoxylin and eosin stain [33].
The study investigated the deep effect of the tested compounds on the mucosa, submucosa and mucosal gland. The stomachs which were opened longitudinally along the greater curvature were used and the specimens were taken from the stomachs of all cases. These specimens were fixed in 10% formalin solution for 72 h. The samples were processed and embedded in paraffin wax. Microtomy was done and 5 microns tissue sections were obtained and mounted on clean glass slides.

COX-1 (ovine) = biological target: T2, COX-1 (ovine) (Ovis aries, UniProt P05979); test: COX colorimetric inhibitor screening assay, COX-1
T2 sequence (P05979 25-600): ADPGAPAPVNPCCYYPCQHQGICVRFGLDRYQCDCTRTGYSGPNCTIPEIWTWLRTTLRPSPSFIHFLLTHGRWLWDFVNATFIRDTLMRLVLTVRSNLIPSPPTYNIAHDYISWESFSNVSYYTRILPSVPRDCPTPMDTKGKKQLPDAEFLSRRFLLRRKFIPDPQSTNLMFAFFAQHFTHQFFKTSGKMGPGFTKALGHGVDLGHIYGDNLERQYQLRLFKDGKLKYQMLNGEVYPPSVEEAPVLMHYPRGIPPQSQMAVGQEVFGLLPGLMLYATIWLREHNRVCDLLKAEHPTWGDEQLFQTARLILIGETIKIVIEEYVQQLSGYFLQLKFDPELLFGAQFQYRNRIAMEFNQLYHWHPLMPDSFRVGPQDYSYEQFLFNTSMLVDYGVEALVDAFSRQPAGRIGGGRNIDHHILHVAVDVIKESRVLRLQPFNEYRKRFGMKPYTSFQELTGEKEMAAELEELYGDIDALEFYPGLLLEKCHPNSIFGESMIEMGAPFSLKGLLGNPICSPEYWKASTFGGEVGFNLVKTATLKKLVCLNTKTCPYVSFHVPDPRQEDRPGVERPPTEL

## N#Cc1c(N)c(C(=O)Nc2ccc(C(=O)O)cc2)n2c1CCC2 [Compound 7]
Rat paw edema
  reduction in rat paw edema: approximately 50%

## Cc1ccc(S(=O)(=O)NC(=O)Cc2c(-c3ccc(Cl)cc3)c(-c3ccccc3)c3n2CC(C)(C)C3)cc1 [Compound 6]
mPGES-1
  IC50: 4.8 µM
5-LOX
  IC50: 0.26 µM

## N#Cc1c(NC(=O)C(=O)Nc2c(C#N)c3n(c2C(=O)Nc2ccc(Br)cc2)CCC3)c(C(=O)Nc2ccc(Br)cc2)n2c1CCC2 [Compound 18, N^1,N^2-Bis(5-((4-Bromophenyl)carbamoyl)-7-cycno-2,3-dihydro-1H-pyrrolizin-6-yl)oxalamide]
[1]
  % Inhibition in Edema Thickness 1 h: 6.91%
  % Inhibition in Edema Thickness 2 h: 17.72%
  % Inhibition in Edema Thickness 3 h: 22.42%
  Potency (anti-inflammatory activity of tested compound/ibuprofen): 0.55
  anti-inflammatory activity (in words): lower activity than both ibuprofen and the parent compound 12
[2]
  IC50: 0.85 µM
[2]; in vitro
  SI (COX-2 selectivity index = IC50 of COX-1/IC50 of COX-2): 6.03
other
  melting point: 318 to 321 °C
Rat stomach mucosa; three days, n = 6
  Ulcerogenicity UI (ulcer index): 4.41
Rat stomach mucosa
  Ulcerogenicity % Protection (% inhibition of ulcer relative to ibuprofen): 68.18%
Thermal pain (hot plate)
  analgesic activity (in words): lower than that of ibuprofen
[3]
  histopathological findings in stomach transverse sections: little histopathological effects such as congested blood vessels and variable degrees of leukocytes infiltration
COX-1 (ovine)
  IC50: 5.1 µM

## CC(C)Cc1ccc(C(C)C(=O)Nc2c(C#N)c3n(c2C(=O)Nc2ccc(Br)cc2)CCC3)cc1 (racemic) [Compound 19, (R,S)-N-(4-Bromophenyl)-7-cycno-6-(2-(4-isobutylphenyl)propanamido)-2,3-dihydro-1H-pyrrolizine-5-carboxamide]
[1]
  % Inhibition in Edema Thickness 1 h: 13.82%
  % Inhibition in Edema Thickness 2 h: 22.44%
  % Inhibition in Edema Thickness 3 h: 38.79%
  Potency (anti-inflammatory activity of tested compound/ibuprofen): 0.95
  anti-inflammatory activity (in words): weak activity after the first hour
other
  melting point: 217 to 219 °C
Rat stomach mucosa
  Ulcerogenicity % Protection (% inhibition of ulcer relative to ibuprofen): 100%
Thermal pain (hot plate)
  analgesic activity (in words): lower than that of ibuprofen
[3]
  histopathological findings in stomach transverse sections: normal mucosal glands with no histopathological effects
